Data on 2 substances can be found in patent US8697840B2, “Peptide inhibition of lung epithelial apoptosis and pulmonary fibrosis” (Board of Regents, The University of Texas System, priority 2008, dated 2014).

Assay [1] relates to uPA. Description: Western blot of lungs of bleo-treated mice: uPA. Type of assay: in vivo, mouse. To be noted: 40 μg bleomycin intranasally, 10 mM peptide i.p. by 0.1 ml osmotic pump after 24 h, day 7. The method, then:
(§1) Mice were treated intranasally with 50 μl saline (SAL; control) or an equal volume of a 40 μg bleomycin solution (Bleo). After 24 h, 10 mM PP-1 (“Bleo+PP-1”) or control peptide (Bleo+CP-1) were given intraperitoneally using a 0.1 ml osmotic pump. Lungs were excised on day 7, bronchoalveolar lavage (BAL) fluid (“B”), lung homogenates (“H”) and membrane proteins (uPAR) were analyzed by Western blotting using antibodies specific for the murine proteins. (The same blot (“H”) was then stripped and analyzed for β-actin confirm equivalent loading of the lanes)
(§2) Mice were treated intranasally with 50 μl saline or an equal volume of a 40 μg bleomycin solution. After 24 h, 10 mM PP-1 or the same concentration of control peptide CP-1 were given intraperitoneally using a 0.1 ml osmotic pump. Lungs were excised on day 7.
Lung tissue was chopped into small pieces with fine scissors and rinsed 3× with PBS. The tissues were then homogenized in 1 ml of extraction buffer (25 mM Tris-HCl, pH 7.9. 0.5 mM EDTA and 0.1 mM PMSF) and the homogenate was centrifuged at 12,000 g for 15 min at 4° C. […] Protein content was measured using a BioRad protein assay kit. […] Protein was detected by enhanced chemiluminescence (ECL). […]
(§3) Mice were treated intranasally with saline (controls) are indicated (SAL). […] (The same blot (H) was later stripped and analyzed for β-actin confirm equivalent loading of the lanes)
In general terms: In western blotting, separated proteins are transferred to a membrane and probed.

Assay [2] relates to uPAR. As to the kind of experiment: Western blot of lung membrane proteins of bleo-treated mice: uPAR. Type of assay: in vivo, mouse. The following applies: 40 μg bleomycin intranasally, 10 mM peptide i.p. by 0.1 ml osmotic pump after 24 h, day 7. The method, then: as §1, §2
After preparation of the cytosolic extract, above, the pellet obtained after the initial centrifugation was resuspended in a membrane extraction buffer containing β-D-glucopyranoside and the suspension was homogenized for 5 to 10 min. […] The resulting clarified supernatant was analyzed for uPAR expression by Western blotting with anti-uPAR antibody and detected by ECL.
as §3

Assay [3] relates to cleaved PARP. Description: IHC of lung sections of bleo-treated mice: cleaved PARP. It is filed as in vivo, mouse. To be noted: peptide 4.5 μM i.p. days 1 and 2, bleomycin 40 μg/50 μl intranasal day 2; up to 72 h. On the procedure:
On day 2 mice were treated with bleomycin (40 μg/50μl) by intranasal instillation. Mice were sacrificed 24, 48 and 72 h after later, lungs were excised, inflated and fixed in formalin, and […] sections were analyzed by immunohistochemistry (IHC) using an antibody specific for cleaved PARP.
(§4) For immunohistochemical (IHC) analysis, lungs were inflated at constant pressure of 20 cm H2O, removed and fixed overnight in 2% paraformaldehyde in PBS. Tissue was dehydrated by passage through a standard alcohol series and was embedded in paraffin. 5 μm sections were deparaffinized with xylene followed by incubation with 100% and 95% alcohol. After 10 min of antigen retrieval, the slides were incubated with H2O2 for 30 min to quench endogenous peroxidase. Slides were incubated overnight with the respective antibodies in PBS containing 0.1% Tween 20 and further processed using Lab vision kit (Freemont Calif.).

Assay [4] deals with p53. As to the kind of experiment: IHC of lung tissue of bleo-treated mice: p53. Type of assay: in vivo, mouse. The following applies: bleomycin-treated mice, 24-72 h. On the procedure: as §4
(§5) An IHC study was conducted to analyze lung tissue for expression p53, uPA, uPAR, PAI-1 and cleaved caspase 3 (Table 2). […] These IHC observations were confirmed by Western blotting (see Example II and FIG. 5).

For assay [5], the system named is PAI-1. Description: IHC of lung tissue of bleo-treated mice: PAI-1. It is filed as in vivo, mouse. The following applies: bleomycin-treated mice, 24-72 h. The method, then: as §4, §5
The test system of assay [6] is uPAR. Description: IHC of lung tissue of bleo-treated mice: uPAR. It is filed as in vivo, mouse. To be noted: bleomycin-treated mice, 48-72 h. The method, then:
as §4, §5

Assay [7] has as its system uPA. Description: IHC of lung tissue of bleo-treated mice: uPA. Type of assay: in vivo, mouse. To be noted: bleomycin-treated mice, 48-72 h. The method, then: as §4, §5
Assay [8] has as its system bleo-induced collagen deposition in mouse lung. Description: Mason's Trichrome stain for collagen of lung sections of bleo-treated mice. Type of assay: in vivo. To be noted: for Collagen content in lung section: bleo-treated animals, peptide one day after bleo, day 21, trichrome stain. On the procedure: FIG. 13 is a set of photomicrographs showing that PP-1 prevents bleo-induced collagen deposition in mouse lung. Mice were treated with bleo (50 μg/ml) by intranasal instillation followed by treatment with PP-1 (10 nM) or control peptide CP-1 on day 2. Lungs were excised on day 21, inflated and fixed in formalin, a sectioned into […] sections which were subjected to Mason's Trichrome stain (a three-color stain that stains cell nuclei red, collagen green or blue, and cytoplasm red). Blue staining indicates collagen deposition in bleo-treated lung sections.
FIGS. 14A & 14B is a series of photomicrographs of lung epithelial tissue stained with Mason's trichrome stain for collagen (FIG. 10A) and by TUNEL staining for apoptosis (FIG. 10B). Bleo-treated animals were instilled with either PP-1, PP-2 or control peptide CP-1 one day after bleo treatment, The lungs were removed on day 21, subjected to the staining procedures and examined for collagen accumulation or apoptosis.
Collagen deposition in mouse lung after bleo treatment was investigated. Mice were treated with bleo (50 μg/ml) by intranasal instillation followed by treatment with PP-1 (10 nM) (designated as PP in Figure) or control peptide CP-1 (designated CP in FIG. 13) on day 2. Lungs were excised on day 21, inflated and fixed in formalin, a sectioned into […] sections which were subjected to Mason's Trichrome stain (a three-color stain that stains cell nuclei red, collagen green or blue, and cytoplasm red).
A comparison was made of normal and bleo-treated lung, and the effect of PP-1 and PP-2 on the bleo-treated lungs were examined. Animals were treated with bleo and peptides as above. Lung tissue was removed at day 21 and stained with Mason's trichrome stain for collagen and subjected to TUNEL staining for apoptosis.

Assay [9] deals with Src kinase. To be noted: Beas2B cells, bleo 40 μg/ml, 24 h, Western blot.
Method: Cell lysates were analyzed for activating tyrosine (Y418) phosphorylation and inhibitory tyrosine (Y529) phosphorylation by Western blotting using phospho-specific antibodies. The same membrane was stripped and analyzed for total Src (Src-2) kinase and β-actin expression by Western blotting using specific antibodies.

Take Bleomycin: the “uPA levels in lung” value in assay [1] was “suppression”. Moreover, in [2], the “uPAR levels in lung (membrane proteins)” value is on record as “suppression”. In [3], the “cleavage (degradation) of PARP in lung” value is recorded as “induced cleavage of PARP after 72 h of exposure”. Also, in assay [4], the “p53 expression in lung tissue (IHC)” value is “induced p53 expression beginning at 48 h and increasing up to 72 h”. Also, the “PAI-1 expression in lung tissue (IHC)” value in assay [5] was “PAI-1 expression was also increased in bleomycin-treated mice beginning 24 h after treatment”. Moreover, in [6], the “uPAR levels in lung tissue (IHC)” value is “uPA and uPAR levels fell between 48-72 h of bleomycin exposure”. Moreover, the “uPA levels in lung tissue (IHC)” value in assay [7] was “uPA and uPAR levels fell between 48-72 h of bleomycin exposure”. Besides, the “Collagen content in lung section” value in assay [8] is “Increased”. For the same substance, in assay [9], the “Src kinase activation (Y418 / Y529 phosphorylation)” value is reported as “Src kinase activation through phosphorylation of Src Y418”.
Consider DGIWKASFTTFTVTKYWFYR [PP-1], for which, in [1], the “uPA levels in lung” value was “enhanced the suppressed uPA and uPAR levels”. Further, the “uPAR levels in lung (membrane proteins)” value in [2] is “enhanced the suppressed uPA and uPAR levels”. In addition, the “cleavage (degradation) of PARP in lung” value in assay [3] is “reversed such PARP degradation”. Also, the “p53 expression in lung tissue (IHC)” value in assay [4] is listed as “blocked bleomycin induced p53 expression”. Besides, in assay [5], the “PAI-1 expression in lung tissue (IHC)” value is “reduced this PAI-1 expression”. Further, the “uPAR levels in lung tissue (IHC)” value in [6] was “reversed this suppression”. Further, the “uPA levels in lung tissue (IHC)” value in [7] was “reversed this suppression”. The “bleo-induced collagen deposition (Mason's Trichrome stain)” value in assay [8] (bleo 50 μg/ml intranasal, PP-1 (10 nM) on day 2, lungs day 21) is given as “prevented bleo-induced collagen deposition”. Also, in [8], the “Collagen content in lung section” value was “Normal”. Besides, the “development of bleo-induced lung fibrosis” value in assay [8] (conclusion from Table 3, day 21) is on record as “prevented the development of bleo-induced lung fibrosis”. Besides, the “Src kinase activation (Y418 / Y529 phosphorylation)” value in assay [9] is “inhibited bleo-induced activation of Src Y418 through phosphorylation of Src Y529”.
